Test results reported in US7700782B2, “Compounds 569” (AstraZeneca AB, priority 2007, dated 2010).
Where a name gives a salt, the structure may show the parent alone.

Biological target: T1, Adrenergic β2 (Homo sapiens, UniProt P07550)
T1 construct: Adherent H292 cells were removed from tissue culture flasks; endogenous in cells; host or cells: H292 cells
Assay: Adrenergic β2 mediated cAMP production in H292 cells (AlphaScreen cAMP detection)
Format: cell-based
Settings: Intrinsic Activity, fraction relative to the maximum activity determined for formoterol
In short: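 H292 cells, 5000/well, preincubated 10 min with rolipram (final 300 μM, 1.6% DMSO) in HEPES pH 7.4 HBSS, then compound 60 min at room temperature. Lysate cAMP quantified by AlphaScreen against a cAMP standard curve. pEC50 and intrinsic activity (fraction of formoterol maximum) from four-parameter logistic fits.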

T1 sequence (P07550 whole entry): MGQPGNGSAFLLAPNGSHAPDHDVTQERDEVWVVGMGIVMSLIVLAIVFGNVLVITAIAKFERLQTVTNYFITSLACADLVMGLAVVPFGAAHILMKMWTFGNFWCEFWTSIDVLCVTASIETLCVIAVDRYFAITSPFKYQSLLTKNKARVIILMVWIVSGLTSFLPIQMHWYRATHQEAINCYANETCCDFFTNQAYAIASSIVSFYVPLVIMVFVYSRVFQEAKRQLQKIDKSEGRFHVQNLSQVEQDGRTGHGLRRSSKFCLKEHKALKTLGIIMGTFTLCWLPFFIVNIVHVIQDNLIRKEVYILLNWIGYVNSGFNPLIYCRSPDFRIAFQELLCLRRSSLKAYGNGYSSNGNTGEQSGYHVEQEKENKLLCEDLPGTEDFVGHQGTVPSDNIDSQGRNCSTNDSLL

β2 Int Act	SMILES
0.59	O=C(CCNCCc1ccc(Cl)cc1)N(CCNCCc1ccc(O)c2[nH]c(=O)sc12)C1CCCCCC1 [Example 51, N^3-[2-(4-Chlorophenyl)ethyl]-N^1-cycloheptyl-N^1-(2-{[2-(4-hydroxy-2-oxo-2,3-dihydro-1,3-benzothiazol-7-yl)ethyl]amino}ethyl)-β-alaninamide bis-trifluoroacetic acid salt]
0.85	O=C(CCNCCc1ccc(F)c(F)c1)N(CCNCCc1ccc(O)c2[nH]c(=O)sc12)C1CCCCC1 [Example 73, N^1-Cyclohexyl-N^3-[2-(3,4-difluorophenyl)ethyl]-N^1-(2-{[2-(4-hydroxy-2-oxo-2,3-dihydro-1,3-benzothiazol-7-yl)ethyl]amino}ethyl)-β-alaninamide bis-trifluoroacetic acid salt]
0.71	O=C(CCNCCc1ccc(Cl)cc1)N(CCNCCc1ccc(O)c2[nH]c(=O)sc12)C1CCCCC1 [Example 13, N^3-[2-(4-Chlorophenyl)ethyl]-N-cyclohexyl-N-(2-{[2-(4-hydroxy-2-oxo-2,3-dihydro-1,3-benzothiazol-7-yl)ethyl]amino}ethyl)-β-alaninamide bis-trifluoroacetic acid salt]

The next lines start with the compound.

SMILES	β2 Int Act
CC(=O)OCC(C)(C)CN(CCNCCc1ccc(O)c2[nH]c(=O)sc12)C(=O)CCNCCc1ccc(Cl)cc1 [Example 39, 3-[{N-[2-(4-Chlorophenyl)ethyl]-β-alanyl}(2-{[2-(4-hydroxy-2-oxo-2,3-dihydro-1,3-benzothiazol-7-yl)ethyl]amino}ethyl)amino]-2,2-dimethylpropyl acetate diacetic acid salt]	0.58
CCCC[C@H](C)N(CCNCCc1ccc(O)c2[nH]c(=O)sc12)C(=O)CCNCCc1ccccc1 [Example 102, N-(2-{[2-(4-Hydroxy-2-oxo-2,3-dihydro-1,3-benzothiazol-7-yl)ethyl]amino}ethyl)-N-[(1S)-1-methylpentyl]-N^3-(2-phenylethyl)-β-alaninamide bis-trifluoroacetic acid salt]	0.23
O=C(CCNCCc1ccccc1)N(CCNCCc1ccc(O)c2[nH]c(=O)sc12)C1CCCCC1 [Example 5, N-Cyclohexyl-N-(2-{[2-(4-hydroxy-2-oxo-2,3-dihydro-1,3-benzothiazol-7-yl)ethyl]amino}ethyl)-N^3-(2-phenylethyl)-β-alaninamide bis-trifluoroacetic acid salt]	0.83
O=C(CCNCCc1cccc(F)c1)N(CCNCCc1ccc(O)c2[nH]c(=O)sc12)C1CCCCCC1 [Example 36, N-Cycloheptyl-N^3-[2-(3-fluorophenyl)ethyl]-N-(2-{[2-(4-hydroxy-2-oxo-2,3-dihydro-1,3-benzothiazol-7-yl)ethyl]amino}ethyl)-β-alaninamide bis-trifluoroacetic acid salt]	0.84
O=C(CCNCCc1ccccc1Cl)N(CCNCCc1ccc(O)c2[nH]c(=O)sc12)C1CCCC1 [Example 29, N^3-[2-(2-Chlorophenyl)ethyl]-N-cyclopentyl-N-(2-{[2-(4-hydroxy-2-oxo-2,3-dihydro-1,3-benzothiazol-7-yl)ethyl]amino}ethyl)-β-alaninamide bis-trifluoroacetic acid salt]	0.97
CC(C)(C)CN(CCNCCc1ccc(O)c2[nH]c(=O)sc12)C(=O)CCNCCc1cccc(F)c1 [Example 44, N^1-(2,2-Dimethylpropyl)-N^3-[2-(3-fluorophenyl)ethyl]-N^1-(2-{[2-(4-hydroxy-2-oxo-2,3-dihydro-1,3-benzothiazol-7-yl)ethyl]amino}ethyl)-β-alaninamide bis-trifluoroacetic acid salt]	0.73
